In patent EP0726263A2, “Herbicidal (1,3,4)oxadiazoles and thiadiazoles” (American Cyanamid Company, priority 1995, dated 1996):

How the values were obtained:
Assay type in all cases: in vivo
[1] = system: Setaria viridis; test: Herbicidal activity, preemergence test; settings: pre; sprayed onto soil, 800 g of active material per hectare; evaluated 3 weeks after treatment
Protocol: (§1) To evaluate their herbicidal activity, compounds according to the invention are tested using a representative range of plants: TRZAW Triticum aestivum HORVW Hordeum vulgare ZEAMX Zea mays GOSHI Gossypium hirsutum HELAN Helianthus annuus GLYMA Glycine max ALOMY Alopecurus myosuroides SETVI Setaria viridis ECHCG Echinochloa crus-galli GALAP Galium aparine STEME Stellaria media VERPE Veronica persica VIOAR Viola arvensis IPOHE Ipomoea hederacea LAMPU Lamium purpureum PAPRH Papaver rhoeas MATIN Matricaria inodora AMARE Amaranthus retroflexus ABUTH Abutilon theophrasti AMBEL Ambrosia artemisifolia CHEAL Chenopodium album
(§2) The tests fall into two categories, preemergence and postemergence. The preemergence tests involve spraying a liquid formulation of the compound onto the soil in which the seeds have recently been sown. The postemergence tests involve spraying a liquid formulation of the compound onto seedling plants.
(§3) The soil used in the tests is a prepared horticultural loam.
(§4) The formulations used in the tests are prepared from solutions of the test compounds in acetone containing 0.4% by weight of an alkylphenol/ethylene oxide condensate available under the trade mark TRITON X-155. These acetone solutions are diluted with water and the resulting formulations applied at dosage levels corresponding to 800 g of active material per hectare in a volume equivalent to 900 litres per hectare.
(§5) In the preemergence tests untreated sown soil and in the postemergence tests untreated soil bearing seedling plants are used as controls.
(§6) Results of herbicide evaluation are expressed on a rating scale (0-9). The scale is based upon a visual observation of plant stand, vigor, malformation, size, chlorosis, and general plant appearance as compared to a control. Preemergence and postemergence treatments are evaluated at 3 and 2 weeks after treatment, respectively.

[2] = system: Alopecurus myosuroides; test: Herbicidal activity, preemergence test; settings: pre; sprayed onto soil, 800 g of active material per hectare; evaluated 3 weeks after treatment
Protocol: as §1, §2, §3, §4, §5, §6

[3] = system: Hordeum vulgare; test: Herbicidal activity, preemergence test; settings: pre; sprayed onto soil, 800 g of active material per hectare; evaluated 3 weeks after treatment
Protocol: as §1, §2, §3, §4, §5, §6

[4] = system: Glycine max; test: Herbicidal activity, preemergence test; settings: pre; sprayed onto soil, 800 g of active material per hectare; evaluated 3 weeks after treatment
Protocol: as §1, §2, §3, §4, §5, §6

[5] = system: Papaver rhoeas; test: Herbicidal activity, preemergence test; settings: pre; sprayed onto soil, 800 g of active material per hectare; evaluated 3 weeks after treatment
Protocol: as §1, §2, §3, §4, §5, §6

[6] = system: Lamium purpureum; test: Herbicidal activity, preemergence test; settings: pre; sprayed onto soil, 800 g of active material per hectare; evaluated 3 weeks after treatment
Protocol: as §1, §2, §3, §4, §5, §6

[7] = system: Gossypium hirsutum; test: Herbicidal activity, preemergence test; settings: pre; sprayed onto soil, 800 g of active material per hectare; evaluated 3 weeks after treatment
Protocol: as §1, §2, §3, §4, §5, §6

[8] = system: Matricaria inodora; test: Herbicidal activity, preemergence test; settings: pre; sprayed onto soil, 800 g of active material per hectare; evaluated 3 weeks after treatment
Protocol: as §1, §2, §3, §4, §5, §6

[9] = system: Zea mays; test: Herbicidal activity, preemergence test; settings: pre; sprayed onto soil, 800 g of active material per hectare; evaluated 3 weeks after treatment
Protocol: as §1, §2, §3, §4, §5, §6

[10] = system: Stellaria media; test: Herbicidal activity, preemergence test; settings: pre; sprayed onto soil, 800 g of active material per hectare; evaluated 3 weeks after treatment
Protocol: as §1, §2, §3, §4, §5, §6

[11] = system: Amaranthus retroflexus; test: Herbicidal activity, preemergence test; settings: pre; sprayed onto soil, 800 g of active material per hectare; evaluated 3 weeks after treatment
Protocol: as §1, §2, §3, §4, §5, §6

[12] = system: Chenopodium album; test: Herbicidal activity, preemergence test; settings: pre; sprayed onto soil, 800 g of active material per hectare; evaluated 3 weeks after treatment
Protocol: as §1, §2, §3, §4, §5, §6

[13] = system: Galium aparine; test: Herbicidal activity, preemergence test; settings: pre; sprayed onto soil, 800 g of active material per hectare; evaluated 3 weeks after treatment
Protocol: as §1, §2, §3, §4, §5, §6

[14] = system: Veronica persica; test: Herbicidal activity, preemergence test; settings: pre; sprayed onto soil, 800 g of active material per hectare; evaluated 3 weeks after treatment
Protocol: as §1, §2, §3, §4, §5, §6

[15] = system: Abutilon theophrasti; test: Herbicidal activity, preemergence test; settings: pre; sprayed onto soil, 800 g of active material per hectare; evaluated 3 weeks after treatment
Protocol: as §1, §2, §3, §4, §5, §6

[16] = system: Ipomoea hederacea; test: Herbicidal activity, preemergence test; settings: pre; sprayed onto soil, 800 g of active material per hectare; evaluated 3 weeks after treatment
Protocol: as §1, §2, §3, §4, §5, §6

[17] = system: Ambrosia artemisifolia; test: Herbicidal activity, preemergence test; settings: pre; sprayed onto soil, 800 g of active material per hectare; evaluated 3 weeks after treatment
Protocol: as §1, §2, §3, §4, §5, §6

[18] = system: Triticum aestivum; test: Herbicidal activity, preemergence test; settings: pre; sprayed onto soil, 800 g of active material per hectare; evaluated 3 weeks after treatment
Protocol: as §1, §2, §3, §4, §5, §6

[19] = system: Setaria viridis; test: Herbicidal activity, postemergence test; settings: post; sprayed onto seedling plants, 800 g of active material per hectare; evaluated 2 weeks after treatment
Protocol: as §1, §2, §3, §4, §5, §6

[20] = system: Alopecurus myosuroides; test: Herbicidal activity, postemergence test; settings: post; sprayed onto seedling plants, 800 g of active material per hectare; evaluated 2 weeks after treatment
Protocol: as §1, §2, §3, §4, §5, §6

[21] = system: Hordeum vulgare; test: Herbicidal activity, postemergence test; settings: post; sprayed onto seedling plants, 800 g of active material per hectare; evaluated 2 weeks after treatment
Protocol: as §1, §2, §3, §4, §5, §6

[22] = system: Glycine max; test: Herbicidal activity, postemergence test; settings: post; sprayed onto seedling plants, 800 g of active material per hectare; evaluated 2 weeks after treatment
Protocol: as §1, §2, §3, §4, §5, §6

[23] = system: Papaver rhoeas; test: Herbicidal activity, postemergence test; settings: post; sprayed onto seedling plants, 800 g of active material per hectare; evaluated 2 weeks after treatment
Protocol: as §1, §2, §3, §4, §5, §6

[24] = system: Lamium purpureum; test: Herbicidal activity, postemergence test; settings: post; sprayed onto seedling plants, 800 g of active material per hectare; evaluated 2 weeks after treatment
Protocol: as §1, §2, §3, §4, §5, §6

[25] = system: Gossypium hirsutum; test: Herbicidal activity, postemergence test; settings: post; sprayed onto seedling plants, 800 g of active material per hectare; evaluated 2 weeks after treatment
Protocol: as §1, §2, §3, §4, §5, §6

[26] = system: Matricaria inodora; test: Herbicidal activity, postemergence test; settings: post; sprayed onto seedling plants, 800 g of active material per hectare; evaluated 2 weeks after treatment
Protocol: as §1, §2, §3, §4, §5, §6

[27] = system: Zea mays; test: Herbicidal activity, postemergence test; settings: post; sprayed onto seedling plants, 800 g of active material per hectare; evaluated 2 weeks after treatment
Protocol: as §1, §2, §3, §4, §5, §6

[28] = system: Stellaria media; test: Herbicidal activity, postemergence test; settings: post; sprayed onto seedling plants, 800 g of active material per hectare; evaluated 2 weeks after treatment
Protocol: as §1, §2, §3, §4, §5, §6

[29] = system: Amaranthus retroflexus; test: Herbicidal activity, postemergence test; settings: post; sprayed onto seedling plants, 800 g of active material per hectare; evaluated 2 weeks after treatment
Protocol: as §1, §2, §3, §4, §5, §6

[30] = system: Chenopodium album; test: Herbicidal activity, postemergence test; settings: post; sprayed onto seedling plants, 800 g of active material per hectare; evaluated 2 weeks after treatment
Protocol: as §1, §2, §3, §4, §5, §6

[31] = system: Galium aparine; test: Herbicidal activity, postemergence test; settings: post; sprayed onto seedling plants, 800 g of active material per hectare; evaluated 2 weeks after treatment
Protocol: as §1, §2, §3, §4, §5, §6

[32] = system: Veronica persica; test: Herbicidal activity, postemergence test; settings: post; sprayed onto seedling plants, 800 g of active material per hectare; evaluated 2 weeks after treatment
Protocol: as §1, §2, §3, §4, §5, §6

[33] = system: Abutilon theophrasti; test: Herbicidal activity, postemergence test; settings: post; sprayed onto seedling plants, 800 g of active material per hectare; evaluated 2 weeks after treatment
Protocol: as §1, §2, §3, §4, §5, §6

[34] = system: Ipomoea hederacea; test: Herbicidal activity, postemergence test; settings: post; sprayed onto seedling plants, 800 g of active material per hectare; evaluated 2 weeks after treatment
Protocol: as §1, §2, §3, §4, §5, §6

[35] = system: Ambrosia artemisifolia; test: Herbicidal activity, postemergence test; settings: post; sprayed onto seedling plants, 800 g of active material per hectare; evaluated 2 weeks after treatment
Protocol: as §1, §2, §3, §4, §5, §6

[36] = system: Triticum aestivum; test: Herbicidal activity, postemergence test; settings: post; sprayed onto seedling plants, 800 g of active material per hectare; evaluated 2 weeks after treatment
Protocol: as §1, §2, §3, §4, §5, §6

Compound	SETVI control rating (0-9) [1]	ALOMY control rating (0-9) [2]	HORVW control rating (0-9) [3]	GLXMA control rating (0-9) [4]	PAPRH control rating (0-9) [5]	LAMPU control rating (0-9) [6]	GOSHI control rating (0-9) [7]	MATIN control rating (0-9) [8]	ZEAMX control rating (0-9) [9]	STEME control rating (0-9) [10]	AMARE control rating (0-9) [11]	CHEAL control rating (0-9) [12]	GALAP control rating (0-9) [13]	VERPE control rating (0-9) [14]	ABUTH control rating (0-9) [15]	IPOHE control rating (0-9) [16]	AMBEL control rating (0-9) [17]	TRZAW control rating (0-9) [18]	SETVI control rating (0-9) [19]	ALOMY control rating (0-9) [20]	other results
C[C@H](NC(=O)c1nnc(-c2ccc(F)cc2)o1)c1ccccc1 [Example 7]	9 (complete kill)	4 (injury)	0 (no effect)	1 (trace effect)	9 (complete kill)	9 (complete kill)	0 (no effect)	9 (complete kill)	0 (no effect)	9 (complete kill)	9 (complete kill)	8 (approaching complete kill)	1 (trace effect)	9 (complete kill)	8 (approaching complete kill)	0 (no effect)	0 (no effect)	0 (no effect)	9 (complete kill)	5 (definite injury)	HORVW control rating (0-9) [21]: 5 (definite injury); GLXMA control rating (0-9) [22]: 8 (approaching complete kill); PAPRH control rating (0-9) [23]: 9 (complete kill); LAMPU control rating (0-9) [24]: 9 (complete kill); GOSHI control rating (0-9) [25]: 9 (complete kill); MATIN control rating (0-9) [26]: 9 (complete kill); ZEAMX control rating (0-9) [27]: 2 (slight effect); STEME control rating (0-9) [28]: 9 (complete kill); AMARE control rating (0-9) [29]: 9 (complete kill); CHEAL control rating (0-9) [30]: 9 (complete kill); GALAP control rating (0-9) [31]: 7 (good herbicidal effect); VERPE control rating (0-9) [32]: 9 (complete kill); ABUTH control rating (0-9) [33]: 9 (complete kill); IPOHE control rating (0-9) [34]: 9 (complete kill); AMBEL control rating (0-9) [35]: 8 (approaching complete kill); TRZAW control rating (0-9) [36]: 4 (injury)
O=C(NCc1cccs1)c1nnc(-c2ccc(F)cc2)o1 [Example 8]	3 (moderate effect)	0 (no effect)	0 (no effect)	2 (slight effect)	9 (complete kill)	0 (no effect)	2 (slight effect)	5 (definite injury)	2 (slight effect)	7 (good herbicidal effect)	9 (complete kill)	5 (definite injury)	0 (no effect)	7 (good herbicidal effect)	0 (no effect)	0 (no effect)	3 (moderate effect)	0 (no effect)	0 (no effect)	0 (no effect)	HORVW control rating (0-9) [21]: 0 (no effect); GLXMA control rating (0-9) [22]: 0 (no effect); PAPRH control rating (0-9) [23]: 3 (moderate effect); LAMPU control rating (0-9) [24]: 0 (no effect); GOSHI control rating (0-9) [25]: 0 (no effect); MATIN control rating (0-9) [26]: 2 (slight effect); ZEAMX control rating (0-9) [27]: 0 (no effect); STEME control rating (0-9) [28]: 5 (definite injury); AMARE control rating (0-9) [29]: 8 (approaching complete kill); CHEAL control rating (0-9) [30]: 4 (injury); GALAP control rating (0-9) [31]: 0 (no effect); VERPE control rating (0-9) [32]: 4 (injury); ABUTH control rating (0-9) [33]: 3 (moderate effect); IPOHE control rating (0-9) [34]: 0 (no effect); AMBEL control rating (0-9) [35]: 3 (moderate effect); TRZAW control rating (0-9) [36]: 0 (no effect)
O=C(NCc1ccccc1)c1nnc(-c2ccc(F)cc2)o1 [Example 9]	3 (moderate effect)	0 (no effect)	0 (no effect)	1 (trace effect)	6 (herbicidal effect)	0 (no effect)	0 (no effect)	0 (no effect)	0 (no effect)	0 (no effect)	0 (no effect)	0 (no effect)	0 (no effect)	7 (good herbicidal effect)	0 (no effect)	0 (no effect)	0 (no effect)	0 (no effect)	0 (no effect)	0 (no effect)	HORVW control rating (0-9) [21]: 0 (no effect); GLXMA control rating (0-9) [22]: 0 (no effect); PAPRH control rating (0-9) [23]: 0 (no effect); LAMPU control rating (0-9) [24]: 0 (no effect); GOSHI control rating (0-9) [25]: 0 (no effect); MATIN control rating (0-9) [26]: 0 (no effect); ZEAMX control rating (0-9) [27]: 0 (no effect); STEME control rating (0-9) [28]: 0 (no effect); AMARE control rating (0-9) [29]: 0 (no effect); CHEAL control rating (0-9) [30]: 0 (no effect); GALAP control rating (0-9) [31]: 0 (no effect); VERPE control rating (0-9) [32]: 0 (no effect); ABUTH control rating (0-9) [33]: 3 (moderate effect); IPOHE control rating (0-9) [34]: 0 (no effect); AMBEL control rating (0-9) [35]: 0 (no effect); TRZAW control rating (0-9) [36]: 0 (no effect)
